Data taken from patent US12358919B2, “Antibacterial compounds” (Universita' degli Studi di Siena, priority 2019, dated 2025).
Where two headings read alike, the source gives them in different places.

Tests used:
Format in all cases: cell-based
[1] = system: Klebsiella pneumoniae ATCC 13833; test: microbe, parasite or virus in culture; conditions: for Potentiation fold: ratio MICcompound/MICcompound+polymyxin E; for MIC in presence of colistin: with 0.25xMIC polymyxin E1 (0.12 mg/L); for MIC: Klebsiella pneumoniae, ATCC13833
Description: (§1) Growth inhibition or killing of bacteria was investigated using conventional methods widely described in the scientific literature. Parameters such as the Minimum Inhibitory Concentration (MIC) were determined as described in Clinical Laboratory Standard Institute (CLSI) document M07 “Methods for Dilution Antimicrobial Susceptibility Tests for Bacteria That Grow Aerobically, 11th Edition” (2018). Synergistic activity of the compounds described in the present specification were determined by measuring the variation of the MIC's compound in the absence and presence of a sub-inhibitory concentration of a suitable antibacterial agent, such as polymyxin E1. Furthermore, the Fractional Inhibitory Concentrations (FICs) were measured using a chequerboard analysis to determine the average FIC index (FICI), whose value is known to characterize the interaction between two compounds and/or drugs (≤0.5, synergistic interaction; >0.5 and <2, no interaction, additive effect; ≥2, antagonistic interaction). Furthermore, the selectivity of the compounds was investigated by measuring their cytotoxic effect on mammalian cell lines (e.g. HeLa cells).
(§2) Several methods were used to investigate the synergistic activity of the compounds, including (a) the determination of the MIC in the presence of a sub-inhibitory concentration of a suitable antibacterial agent, (b) the determination of the average FICI using a chequerboard analysis and (c) the time-kill curve analysis of a suitable agent (at a sub-inhibitory concentration) in the absence and presence of the pyrazolo[4,3-b]pyridin-6-carboxamide compound at a fixed concentration of 2 or 8 mg/L.
(§3) The MIC of the compound was determined alone and in the presence of a fixed and sub-inhibitory concentration of a suitable antibacterial agent of the polymyxin class, such as polymyxin E1 (colistin). The potentiation fold was computed as the ratio MICcompound/MICcompound+polymyxin E. Tested organisms included Escherichia coli CCUG^TKlebsiella pneumoniae ATCC 13833 and Acinetobacter baumannii ATCC 17978, which show a colistin MIC of 0.5, 0.5 and 1 mg/L, respectively.

Escherichia coli CCUG^T = test: microbe, parasite or virus in culture; conditions: for Potentiation fold: ratio MICcompound/MICcompound+polymyxin E; for MIC in presence of colistin: with 0.25xMIC polymyxin E1 (0.12 mg/L); for MIC: Escherichia coli
Description: as §1, §2, §3

[2] = system: Acinetobacter baumannii ATCC 17978; test: microbe, parasite or virus in culture; conditions: for Potentiation fold: ratio MICcompound/MICcompound+polymyxin E; for MIC in presence of colistin: with 0.25xMIC polymyxin E1 (0.25 mg/L); for MIC: Acinetobacter baumannii, ATCC17978
Description: as §1, §2, §3

[3] = system: Streptococcus pyogenes ATCC 12344; test: MIC, broth microdilution (direct antibacterial activity); conditions: ATCC12344, S. pyogenes ATCC 12344, compound alone, 18-24 h, read-out: MIC
Description: as §1
(§4) The MIC values were determined using the broth microdilution method as described in document M07 using Mueller-Hinton broth as culture medium and an initial bacterial inoculum size of 5×10^5 CFU/mL, with a final volume of 100 μL per well in a 96-well microplate. Bacterial strains were Bacillus subtilis ATCC 6633, Enterococcus faecalis ATCC 29212, Streptococcus pyogenes ATCC 12344 and Staphylococcus aureus ATCC 25923. The tested compound concentration ranged from 512 to 0.25 mg/L. Plates were incubated for 18-24 hours at 35±2° C. prior to results analysis.

[4] = system: Staphylococcus aureus ATCC 25923; test: as above; conditions: ATCC25923, S. aureus ATCC 25923, compound alone, 18-24 h, read-out: MIC
Description: as §1, §4

[5] = system: Bacillus subtilis ATCC 6633; test: as above; conditions: ATCC6633, B. subtilis ATCC 6633, compound alone, 18-24 h, read-out: MIC
Description: as §1, §4

[6] = system: Enterococcus faecalis ATCC 29212; test: as above; conditions: ATCC29212, E. faecalis ATCC 29212, compound alone, 18-24 h, read-out: MIC
Description: as §1, §4

[7] = K. pneumoniae ATCC 13833, compound alone, read-out: MIC
[8] = E. coli CCUG^T, compound alone, read-out: MIC
[9] = A. baumannii ATCC 17978, compound alone, read-out: MIC

Row | Compound | Potentiation fold ([1]; K. pneumoniae ATCC 13833) | MIC in presence of colistin ([1]; K. pneumoniae ATCC 13833) | MIC [1] | Potentiation fold (Escherichia coli CCUG^T; E. coli CCUG^T) | MIC in presence of colistin (Escherichia coli CCUG^T; E. coli CCUG^T) | MIC (Escherichia coli CCUG^T) | Potentiation fold ([2]; A. baumannii ATCC 17978) | MIC in presence of colistin ([2]; A. baumannii ATCC 17978) | MIC [2] | MIC [1, 7] | MIC (Escherichia coli CCUG^T; [8]) | MIC [2, 9] | MIC [3] | MIC [4] | MIC [5] | MIC [6]
1 | CCCCn1c(=O)c(C(=O)NC23CC4CC(CC(O)(C4)C2)C3)c(O)c2nn(C)cc21 [Ia, 4-(1-Butyl)-4,5-dihydro-7-hydroxy-N-(1-hydroxyadamantan-3-yl)-2-methyl-5-oxo-2H-pyrazolo[4,3-b]pyridin-6-carboxamide] | ≥8 | 64 µg/mL | > 512 µg/mL | ≥16 | 32 µg/mL | > 512 µg/mL | ≥16 | 32 µg/mL | > 512 µg/mL | – | – | – | – | – | – | –
2 | CC(C)n1c(=O)c(C(=O)NC2CCCc3ccccc32)c(O)c2nn(C)cc21 (stereo not shown) [Iaa, 4,5-Dihydro-7-hydroxy-2-methyl-5-oxo-4-(2-propyl)-N-(1,2,3,4-tetrahydro-1-naphthyl)-2H-pyrazolo[4,3-b]pyridin-6-carboxamide] | ≥16 | 32 µg/mL | – | ≥32 | 16 µg/mL | – | ≥32 | 16 µg/mL | – | > 512 µg/mL | > 512 µg/mL | > 512 µg/mL | 32 µg/mL | 64 µg/mL | 16 µg/mL | 64 µg/mL
3 | CC(C)n1c(=O)c(C(=O)NC(c2ccccc2)c2ccccc2)c(O)c2nn(C)cc21 [Iab, 4,5-Dihydro-N-(diphenylmethyl)-7-hydroxy-2-methyl-5-oxo-4-(2-propyl)-2H-pyrazolo[4,3-b]pyridin-6-carboxamide] | ≥32 | 16 µg/mL | – | ≥32 | 16 µg/mL | – | ≥32 | 16 µg/mL | – | > 512 µg/mL | > 512 µg/mL | > 512 µg/mL | 32 µg/mL | 32 µg/mL | 16 µg/mL | 32 µg/mL
4 | CCCCn1c(=O)c(C(=O)NCc2ccc(F)cc2)c(O)c2nn(C)cc21 [Iac, 4-(1-Butyl)-4,5-dihydro-N-[(4-fluorophenyl)methyl]-7-hydroxy-2-methyl-5-oxo-2H-pyrazolo[4,3-b]pyridin-6-carboxamide] | – | – | – | – | – | – | – | – | – | – | – | – | 32 µg/mL | 128 µg/mL | 64 µg/mL | 64 µg/mL
5 | CCCCn1c(=O)c(C(=O)N[C@@H](Cc2ccccc2)C(=O)OC(C)(C)C)c(O)c2nn(C)cc21 [Iad, 1,1-Dimethylethyl (S)-2-[4-(1-butyl)-4,5-dihydro-7-hydroxy-2-methyl-5-oxo-2H-pyrazolo[4,3-b]pyridin-6-carboxamido]-3-phenylpropanoate] | ≥16 | 32 µg/mL | – | ≥16 | 32 µg/mL | – | ≥4 | 128 µg/mL | – | > 512 µg/mL | > 512 µg/mL | > 512 µg/mL | 64 µg/mL | 256 µg/mL | 32 µg/mL | 128 µg/mL
6 | CCCCn1c(=O)c(C(=O)Nc2ccc(F)cc2)c(O)c2nn(C)cc21 [Iae, 4-(1-Butyl)-4,5-dihydro-N-(4-fluorophenyl)-7-hydroxy-2-methyl-5-oxo-2H-pyrazolo[4,3-b]pyridin-6-carboxamide] | ≥2 | 256 µg/mL | – | ≥2 | 256 µg/mL | – | ≥16 | 32 µg/mL | – | > 512 µg/mL | > 512 µg/mL | > 512 µg/mL | 32 µg/mL | 128 µg/mL | 128 µg/mL | 32 µg/mL
7 | CCCCn1c(=O)c(C(=O)NC(C)(C)C)c(O)c2nn(C)cc21 [Iaf, 4-(1-Butyl)-4,5-dihydro-N-(1,1-dimethylethyl)-7-hydroxy-2-methyl-5-oxo-2H-pyrazolo[4,3-b]pyridin-6-carboxamide] | ≥16 | 32 µg/mL | – | ≥16 | 32 µg/mL | – | ≥8 | 64 µg/mL | – | > 512 µg/mL | > 512 µg/mL | > 512 µg/mL | 64 µg/mL | 64 µg/mL | 128 µg/mL | 512 µg/mL
8 | CCCCn1c(=O)c(C(=O)NC2CCCC2)c(O)c2nn(C)cc21 [Iag, 4-(1-Butyl)-N-cyclopentyl-4,5-dihydro-7-hydroxy-2-methyl-5-oxo-2H-pyrazolo-[4,3-b]pyridin-6-carboxamide] | ≥8 | 64 µg/mL | – | ≥16 | 32 µg/mL | – | ≥4 | 128 µg/mL | – | > 512 µg/mL | > 512 µg/mL | > 512 µg/mL | – | – | – | –
9 | CCCCCn1c(=O)c(C(=O)NC23CC4CC(CC(O)(C4)C2)C3)c(O)c2nn(CCO)cc21 [Io, 4,5-Dihydro-7-hydroxy-N-(1-hydroxyadamantan-3-yl)-2-(2-hydroxyethyl)-5-oxo-4-(1-pentyl)-2H-pyrazolo[4,3-b]pyridin-6-carboxamide] | ≥64 | 8 µg/mL | > 512 µg/mL | – | – | > 512 µg/mL | ≥128 | 4 µg/mL | > 512 µg/mL | – | – | – | – | – | – | –
10 | CCCn1c(=O)c(C(=O)NC23CC4CC(CC(C4)C2)C3)c(O)c2nn(CCOC(C)=O)cc21 [Ir, 2-(2-Acetoxyethyl)-N-(adamantan-1-yl)-4,5-dihydro-7-hydroxy-5-oxo-4-(1-propyl)-2H-pyrazolo[4,3-b]pyridin-6-carboxamide] | ≥8 | 64 µg/mL | > 512 µg/mL | ≥8 | 64 µg/mL | > 512 µg/mL | ≥16 | 32 µg/mL | > 512 µg/mL | – | – | – | – | – | – | –
11 | CCCCn1c(=O)c(C(=O)NC(c2ccccc2)c2ccccc2)c(O)c2nn(C)cc21 [Iu, 4-(1-Butyl)-4,5-dihydro-N-(diphenylmethyl)-7-hydroxy-2-methyl-5-oxo-2H-pyrazolo[4,3-b]pyridin-6-carboxamide] | ≥8 | 64 µg/mL | – | ≥8 | 64 µg/mL | – | ≥16 | 32 µg/mL | – | > 512 µg/mL | > 512 µg/mL | > 512 µg/mL | – | – | – | –
12 | CCCCn1c(=O)c(C(=O)NC(C)(C)C)c(O)c2nn(CC)cc21 [Iw, 4-(1-Butyl)-4,5-dihydro-N-(1,1-dimethylethyl)-2-ethyl-7-hydroxy-5-oxo-2H-pyrazolo[4,3-b]pyridin-6-carboxamide] | ≥16 | 32 µg/mL | – | ≥32 | 16 µg/mL | – | ≥8 | 64 µg/mL | – | > 512 µg/mL | > 512 µg/mL | > 512 µg/mL | – | – | – | –
